{"source": "paper PMC5571211", "about": "(Scientific Reports, 2017)", "key": {"human recombinant LTA4-H": {"molecular_target": "T1, human recombinant LTA4-H (Homo sapiens, UniProt P09960)", "T1 construct": "gift of Dr. E. Proschak, Goethe University, Frankfurt", "T1 sequence (P09960 2-611 limits assumed)": "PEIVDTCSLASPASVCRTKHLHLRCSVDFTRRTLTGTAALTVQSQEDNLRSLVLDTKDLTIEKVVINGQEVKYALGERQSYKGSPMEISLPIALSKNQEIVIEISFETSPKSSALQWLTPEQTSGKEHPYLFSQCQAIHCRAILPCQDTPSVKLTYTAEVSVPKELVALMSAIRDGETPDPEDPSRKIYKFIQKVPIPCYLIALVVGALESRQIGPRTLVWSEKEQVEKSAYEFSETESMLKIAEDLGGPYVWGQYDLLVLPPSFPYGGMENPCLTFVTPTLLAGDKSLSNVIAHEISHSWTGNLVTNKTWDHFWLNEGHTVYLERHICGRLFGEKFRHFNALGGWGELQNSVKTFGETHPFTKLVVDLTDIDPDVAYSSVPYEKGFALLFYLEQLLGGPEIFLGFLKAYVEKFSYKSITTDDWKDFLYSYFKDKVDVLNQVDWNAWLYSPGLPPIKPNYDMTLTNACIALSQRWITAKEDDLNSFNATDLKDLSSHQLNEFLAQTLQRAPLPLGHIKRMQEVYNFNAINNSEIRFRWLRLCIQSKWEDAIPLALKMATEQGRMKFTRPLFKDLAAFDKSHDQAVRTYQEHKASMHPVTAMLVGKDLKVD", "assay": "LTA4 hydrolase activity, co-incubation of isolated 5-LOX and LTA4-H", "format": "biochemical", "settings": "diflapolin up to 10 µM, AUDA 10 µM, SC57461A 0.3 µM, zileuton 3 µM", "protocol": "In order to determine the activity of LTA4-H, aliquots of human recombinant 5-LOX (0.5 µg) and 10 µg of human recombinant LTA4-H (kindly provided by Dr. E. Proschak, Goethe University, Frankfurt, Germany) were suspended in 1 mL PBS containing 1 mM EDTA and pre-incubated with test compounds or vehicle (0.1% DMSO) for 10 min on ice. The specific LTA4-H inhibitor SC57461A (0.3 µM) was used as reference drug. Subsequently, incubations were stimulated with 20 µM AA and 2 mM CaCl2 for additional 10 min at 37 °C. The reaction was stopped by 1 volume ice-cold methanol, 530 µL acidified PBS and 200 ng of PGB1 as internal standard were added and subjected to solid phase extraction. All LTB4 isomers were analyzed by HPLC as described above."}, "mPGES-1": {"molecular_target": "T2, mPGES-1 (Homo sapiens, UniProt O14684)", "T2 construct": "A549 cells were cultivated in DMEM medium containing FCS (2%) and IL-1β (2 ng/mL) for 72 h; endogenous in cells; host or cells: A549 cells, IL-1β-induced, microsomal fraction", "T2 sequence (O14684 1-152)": "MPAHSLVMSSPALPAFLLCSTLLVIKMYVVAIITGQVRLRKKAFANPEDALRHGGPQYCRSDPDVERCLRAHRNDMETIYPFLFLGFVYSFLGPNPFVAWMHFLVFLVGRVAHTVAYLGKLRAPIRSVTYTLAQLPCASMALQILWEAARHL", "assay": "mPGES-1 activity in microsomes of IL-1β-stimulated A549 cells", "format": "biochemical", "settings": "cell-free, up to 10 µM", "protocol": "To perform the analysis of microsomal PGE2 synthase (mPGES)-1 activity, microsomal preparations of A549 cells were obtained as described before. Briefly, A549 cells were cultivated in DMEM medium containing FCS (2%) and IL-1β (2 ng/mL) for 72 h (37 °C, 5% CO2). Cells were harvested and resuspended in homogenization buffer consisting of potassium phosphate (0.1 M, pH 7.4), phenylmethanesulfonyl fluoride (1 mM), soybean trypsin inhibitor (60 µg/mL), leupeptin (1 µg/mL), glutathione (2.5 mM), and sucrose (250 mM). After freezing the cells in liquid nitrogen and sonication (3 × 20 s), a differential centrifugation at 10,000 g (10 min, 4 °C) and 174,000 × g (60 min, 4 °C) was performed and pellets were resuspended in homogenization buffer. […] After stimulation (1 min, 4 °C) with 20 µM PGH2 the reaction was terminated by addition of stop solution containing FeCl3 (40 mM), citric acid (80 mM), and 11β-PGE2 (10 µM as internal standard) and analyzed for PGE2 product formation by RP-HPLC as reported before."}, "recombinant human COX-2": {"molecular_target": "T3, recombinant human COX-2 (Homo sapiens, UniProt P35354)", "T3 construct": "purchased Cayman Chemical (Biomol, Hamburg, Germany)", "T3 sequence (P35354 18-604)": "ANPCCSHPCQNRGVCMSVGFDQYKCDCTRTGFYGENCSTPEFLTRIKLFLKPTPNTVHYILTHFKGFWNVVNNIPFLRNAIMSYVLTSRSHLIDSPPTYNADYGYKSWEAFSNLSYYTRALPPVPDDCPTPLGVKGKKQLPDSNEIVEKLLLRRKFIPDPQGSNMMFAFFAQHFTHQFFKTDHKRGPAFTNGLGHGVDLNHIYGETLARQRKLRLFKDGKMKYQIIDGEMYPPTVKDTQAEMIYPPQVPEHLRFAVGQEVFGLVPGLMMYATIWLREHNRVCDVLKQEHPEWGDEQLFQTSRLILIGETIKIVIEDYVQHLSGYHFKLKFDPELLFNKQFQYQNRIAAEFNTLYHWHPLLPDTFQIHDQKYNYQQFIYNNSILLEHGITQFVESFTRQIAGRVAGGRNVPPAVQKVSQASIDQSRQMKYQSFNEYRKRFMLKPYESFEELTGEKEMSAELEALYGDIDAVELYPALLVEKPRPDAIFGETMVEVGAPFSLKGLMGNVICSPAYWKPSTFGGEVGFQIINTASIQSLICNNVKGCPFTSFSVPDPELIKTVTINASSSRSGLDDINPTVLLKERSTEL", "assay": "COX-2 activity, cell-free (12-HHT formation)", "format": "biochemical", "settings": "10 µM", "protocol": "COX activity was assayed by using purified ovine COX-1 and recombinant human COX-2, respectively. Enzymes were diluted in Tris buffer (100 mM, pH 8) supplemented with glutathione (5 mM), EDTA (100 µM) and hemoglobin (5 µM) to a final concentration of 50 U/mL (COX-1) or 20 U/mL (COX-2) and pre-incubated with test compounds or vehicle (0.1% DMSO) for 5 min at RT. After 30 sec at 37 °C, reactions were started with 5 µM AA (COX-1) or 2 µM AA (COX-2) and stopped after 5 min at 37 °C by addition of one volume of ice-cold methanol. Solid phase extraction was performed as described above after addition of 200 ng of internal PGB1 standard and COX product formation was determined by analysis of 12-HHT formation as reported before."}, "monocytes": {"test_system": "monocytes", "assay": "Acute cytotoxicity, MTT assay in monocytes", "format": "cell-based, human", "settings": "24 or 48 hrs; diflapolin 10 µM, staurosporine 3 µM", "protocol": "Acute cytotoxicity of the compounds was determined using freshly isolated monocytes. Cells (0.2 × 10^6) per sample were seeded in 100 µL buffer on 96-well plates and treated with the test compounds and appropriate controls for 24 or 48 hrs (37 °C, 5% CO2). After addition of MTT (5 mg/mL) for 2 h (37 °C, 5% CO2), cells were lysed by SDS treatment (10%, pH 4.5) for 16–20 hrs and formazan formation was determined by measurement of absorbance at 570 nm."}}}
{"smiles": "Cc1cc(OCc2nc3ccccc3s2)ccc1NC(=O)Nc1ccc(Cl)c(Cl)c1", "note": "[diflapolin, N-[4-(benzothiazol-2-ylmethoxy)-2-methylphenyl]-N′-(3,4-dichlorophenyl)urea]", "values": [{"measurement": "effect on LTA4-H activity (LTB4 formation)", "setting": "human recombinant LTA4-H", "value": "failed to inhibit"}, {"measurement": "inhibition of mPGES-1 activity", "setting": "mPGES-1", "value": "failed to inhibit"}, {"measurement": "inhibition of COX-2 activity", "setting": "recombinant human COX-2", "value": "did not significantly inhibit"}, {"measurement": "viability of monocytes, MTT assay", "setting": "monocytes", "value": "did not affect the viability"}]}
